Test results reported in patent US20230256050A1, “COMPOSITIONS, METHODS AND USES COMPRISING TENEURIN C-TERMINAL ASSOCIATED PEPTIDE -1 (TCAP-1) FOR ENHANCING MUSCLE PERFORMANCE” (priority 2016, published 2023).
Where no end group is shown, it is not given here.

Assays:
[1] = tested on: diacylglycerol (DAG) levels, downstream signaling of ADGRL1, C2C12 skeletal cell line; test: Mouse diacylglycerol (DAG) ELISA in C2C12 cell lysates; format: cell-based; settings: TCAP-1 100 nM, after 60 minutes, p<0.0001
Procedure: (§1) Immortalized murine skeletal cell line C2C12 cells were used for all in vitro studies. Cells were maintained at 60-70% confluency with Dulbecco’s Modified Eagle Medium (DMEM) supplemented with 20% fetal bovine serum (FBS) and penicillin/streptomycin antibiotic combination. To induce differentiation, the media was changed to DMEM supplemented with 10% horse serum and penicillin/streptomycin antibiotic combination, and cells were allowed to differentiate for 6 days (media replaced every 24 h). For treatment, cells were serum starved for 3 h and then treated with either vehicle (ddH20) or TCAP-1 (100 nM).
(§2) The protocols provided by commercial DAG and IP3 assays (MyBiosource, San Diego, California USA). Briefly, immortalized mouse C2C12 cells were prepared using the TCAP-treatment protocol described previously. Cells were added to a microELISA plate coated with purified mouse DAG or IP3 antibodies, respectively. Subsequently, 3,3′,5,5′-tetramethylbenzidine (TMB) solution was added to detect the HRP-conjugates as the colour changes. Finally, a sulphuric acid solution was added to terminate the reaction. The absorbance change was measured at a wavelength of 450 nm using a spectrophotometer (SpectraMax Plus).

[2] = tested on: inositol triphosphate (IP3) levels, downstream signaling of ADGRL1, C2C12 skeletal cell line; test: Mouse inositol triphosphate (IP3) ELISA in C2C12 cell lysates; format: cell-based; settings: TCAP-1 100 nM, after 15 minutes, p<0.0001
Procedure: as §1, §2

[3] = tested on: C2C12 murine skeletal muscle cells; test: Radioactive glucose (3H-2-deoxyglucose) uptake in vitro; format: cell-based, mouse; settings: 100 nM, at 30 and 45 minutes (p<0.0001, p<0.001)
Procedure: as §1
Immortalized murine skeletal C2C12 cells were allowed to proliferate and differentiate and glucose uptake protocol was followed as previously described with minor modifications (Maher et al., 1991; Uemura & Greenlee, 2006). At day 6 post-plating, cells were washed 2x with Locke’s buffer (154 mM NaCl, 5.6 mM KCI, 2.3 mM CaCl2, 3.6 mM NaHCOs, 5 mM HEPES) without serum and glucose. The culture was incubated in the Locke’s buffer for 1 h at 37° C. followed by exposure to 100 nM insulin, 100 nM TCAP-1, 100 nM SC-TCAP-1, or saline. 3H-2-deoxyglucose (0.5 µCi/ml) was added to culture 5 min before termination of treatment exposure. […] Cell lysates were used for determination of radioactivity by a beta liquid scintillation counter (Beckman Coulter).

[4] = tested on: hind limb muscle; test: Functional positron emission tomography (fPET) of 18F-deoxyglucose uptake; format: in vivo, Wistar rats; settings: single subcutaneous 10 nmoles/kg, 3 days later, p<0.1, n=5
Procedure: Male adult Sprague-Dawley rats (-350 g) were used for the muscle function studies. Male adult Wistar rats (-250 g) were used for the functional positron emission tomography tests. Functional Positron emission tomography (fPET) was performed using a Siemens Inveon microPET small animal PET scanner, and [18F]-2-deoxyglucose (FDG) radiotracer (IBA Molecular) and protocol was followed as previously described (Hogg et al., manuscript in review). PET scans were acquired on all of the animals 3 days post-dosing. The animals were injected intravenously with approximately 1mCi of FDG. The FDG uptake occurred under anesthesia for 90 min. Body temperature was maintained with a thermostat-regulated recirculating water heated pad. Static emission data was acquired for 20 minutes. […] The total PET counts were calculated from all voxels within the segmented volumes of interest. (Percent injected dose (%ID)) was calculated by normalizing the total counts in each tissue of interest at each time point, to the whole body total counts calculated over 1 min from the whole body max uptake time point, for each animal, during the first 90 min post FDG administration.) These images were then compiled into 3D projections, thus allowing for accurate analyses of muscle tissue. Fluorescence of the mean pixel was calibrated to volume of muscle being analyzed (mean pixel fluorescence/mm3).

[5] = tested on: tibialis anterior muscle; test: Electrical muscle stimulation, 6-minute fatigue protocol; format: in vivo, Sprague-Dawley rats
Procedure: Male adult Sprague-Dawley rats (-350 g) were used for the muscle function studies. Male adult Wistar rats (-250 g) were used for the functional positron emission tomography tests. Electrical muscle stimulation protocol was followed as described by Holwerda and Locke (2014) with minor modifications. Briefly, sixteen male adult Sprague-Dawley rats ([…]) were allowed to acclimate for 1 week on a 12:12 LD cycle. For 5 days daily, half of the rats (n=8) were treated with physiological saline control, and the other half (n=8) was treated with mouse-TCAP-1 (10 nmoles/kg) by subcutaneous injection in the interscapular region. Three days from the last treatment, animals were anesthetized with 5% isofluorane in 1 L/min O2, and subsequently positioned into testing apparatus. A 25 g needle was inserted through the soft tissue of the knee in order to ensure a stable position. The foot was placed on the lever attached to a servomotor and taped in position. Electrodes were placed below the skin but adjacent to the tibialis anterior (TA) muscle. The correct voltages for peak tetanic tension was established by increasing voltage by 1 volt increments. The test began with a single tetanus and single twitch protocol to establish baseline. The 6-min fatigue protocol (8 V, 200 Hz, 300 ms) was started. Immediately following the termination of the protocol, tetanic and twitch tensions were recorded at 0, 1, and 5 mins. Animals were immediately sacrificed after recovery measurements were recorded.

[6] = tested on: tibialis anterior muscle; test: Oxidative capacity, NADH staining of muscle cryosections; format: in vivo, Sprague-Dawley rats; settings: 10 nmoles/kg for 5 days
Procedure: Tibialis anterior muscles from the treated Sprague-Dawley rats were flash-frozen in liquid-nitrogen-cooled isopentane until cryosectioned at 10 µm thickness. Cryosections were then washed 2X with PBS, and then 0.2% NBT solution in PBS containing 0.1% NADH was added and allowed to incubate for 30 min at 37° C. Slides were washed 2X in PBS before mounted with cryoseal and imaged with Canon camera and Leica bright-field microscope at 100x magnification. Images were analyzed on Image J software and frequency distribution curves were constructed, where the darker the pixel represents higher NADH levels. Frequency curves were built based on average of five pictures per tissue, with a minimum of three tissues analysed for each group.

[7] = tested on: C2C12 myotubes; test: Calcium imaging in live C2C12 cells (fluo-4); format: cell-based, mouse; settings: caffeine 4 mM, TCAP-1 100 nM pre-treatment for 1 hour; for peak in cytosolic calcium on caffeine application (fluo-4 fluorescence): compared with caffeine alone; for decline of cytosolic calcium after the caffeine peak: over 5 minutes
Procedure: For live-cell fluorescence experiments, immortalized murine C2C12 skeletal muscle cells were grown and fully differentiated on Poly-D-lysine coated 25 mm round No. 1 glass coverslips (Warner Instruments, Hamden, CT, USA). Cells were grown in Dulbecco’s Modified Eagle Medium (DMEM) supplemented with 20% fetal bovine serum (FBS), 100 U/ml penicillin and 100 µg/ml streptomycin (Invitrogen, Burlington, ON, Canada), and stimulated differentiation with DMEM supplemented with 10% horse serum (HS), 100 U/ml penicillin and 100 µg/ml streptomycin (Invitrogen, Burlington, ON, Canada. Changes in intracellular calcium were assessed using the membrane-permeable calcium sensitive fluorescent indicator fluo-4, AM (Invitrogen, Burlington, ON, Canada). Cells were loaded with fluo-4 by incubating a single coverslip in DMEM containing 10 µM fluo-4 (from a 1 mM stock solution in DMSO) for 30 min (37° C.) followed by a 15 min wash in Locke’s Buffer containing (in mM): 154 mM NaCl, 4 mM NaHCOs, 5 mM KCI, 2.3 mM CaCl2, 1 mM MgCl2, 5 mM glucose and 10 mM Hepes (pH 7.4); osmolarity 305-310 mOsmol at 22° C. During loading, the acetate groups on fluo-4 are removed by intracellular esterases reducing dye leakage. In experiments assessing changes in intracellular calcium, coverslips were placed in a flow-through bath chamber (RC-40HP, Warner Instruments, Hamden, CT, USA) of an inverted microscope (Axio Observer Z1, Zeiss, Toronto, ON, Canada) equipped with a 40× oil immersion objective. Cells were continuously bulk perfused with Locke’s buffer via a gravity drip perfusion system at a rate of 2-3 ml min-1 and experiments were conducted at a room temperature (RT) of 22° C. Changes in fluo-4 fluorescence was imaged using a green fluorescent protein (GFP) filter set (Semrock, Rochester, NY, USA) and a X-Cite 120 fluorescence illumination system (Excelitas Technologies, Mississauga, ON, Canada), controlled by Volocity 4.0 imaging software (Quorum Technologies Inc., Guelph, ON, Canada). Fluorescence emissions were detected with an Orca-ER Hamamatsu B/W CCD digital camera (Hamamatsu, Middlesex, NJ, USA). Fluo-4 was excited with a wavelength of 480 nm for 100 ms every 5 sec and fluorescence emission was measured at wavelength of 516 nm. Caffeine (4 mM; Sigma Aldrich, Oakville, ON) was applied to C2C12 myotubes to stimulate calcium release from the sarcoplasmic reticulum. Cells were either pre-treated with TCAP-1 (100 nM) for 1 hour before stimulation with caffeine. Using velocity 4.0 imaging software, multiple regions of interests (ROIs) were taken from each coverslip to be analysed.

[8] = tested on: C2C12 myotubes; test: Mitochondrial membrane potential in C2C12 cells with Rhodamine-123; format: cell-based, mouse; settings: caffeine 4 mM; TCAP-1 100 nM pre-treatment for 1 hour, compared with caffeine alone
Procedure: C2C12 myotubes were cultured as previously described above. Changes in mitochondrial membrane potential were assessed using fluorescent indicator Rhodamine123 (R123). Cells were loaded with R123 by incubating a single coverslip in DMEM containing 5 µM R123 (from a 1 mM stock solution in DMSO) for 30 min (37° C.) followed by a 15 min wash in Locke’s Buffer containing (in mM): 154 mM NaCl, 4 mM NaHCOs, 5 mM KCI, 2.3 mM CaCl2, 1 mM MgCl2, 5 mM glucose and 10 mM Hepes (pH 7.4); osmolarity 305-310 mOsmol at 22° C. […] Changes in R123 fluorescence was imaged using a green fluorescent protein (GFP) filter set (Semrock, Rochester, NY, USA) and a X-Cite 120 fluorescence illumination system (Excelitas Technologies, Mississauga, ON, Canada), controlled by Volocity 4.0 imaging software (Quorum Technologies Inc., Guelph, ON, Canada). Fluorescence emissions were detected with an Orca-ER Hamamatsu B/W CCD digital camera (Hamamatsu, Middlesex, NJ, USA). R123 was excited with a wavelength of 480 nm for 100 ms every 5 sec and fluorescence emission was measured at wavelength of 516 nm. […] Using velocity 4.0 imaging software, multiple regions of interests (ROIs) were taken from each coverslip to be analysed.

[9] = tested on: neurons; settings: via increases of glucose transporter GLUT-3 to the plasma membrane (unpublished); cited from earlier work
[10] = 10 nmoles/kg s.c. for 5 days, baseline

| Molecule | DAG levels compared to vehicle treatment [1] | IP3 levels [2] | 3H-DG uptake into C2C12 cells vs vehicle [3] | 18F-DG uptake in hind limb muscles (fPET fluorescence) [4] | fatigue response curve vs vehicle ([5]; 10 nmoles/kg s.c. for 5 days) | tetanic force production throughout fatigue or recovery vs vehicle ([5]; 10 nmoles/kg s.c. for 5 days) | force generated in recovery after fatigue protocol ([5]; 10 nmoles/kg s.c. for 5 days, after 6-minute fatigue protocol) | contraction relaxation rate at baseline vs vehicle [5, 10] | contraction velocity at baseline vs vehicle [5, 10] | half relaxation time (1/2RT) over fatigue protocol ([5]; 10 nmoles/kg s.c. for 5 days, compared to vehicle, p<0.05) | muscle mass vs vehicle ([5]; 10 nmoles/kg s.c. for 5 days, extracted muscles) | twitch peak force at pre-test (baseline) vs vehicle ([5]; 10 nmoles/kg s.c. for 5 days, tested 3 days after last injection, p<0.05) | rate of the contractions (max dx/dt) over fatigue protocol ([5]; 10 nmoles/kg s.c. for 5 days, vehicle group steadily declined, p<0.05) | fiber size vs vehicle ([5]; data not shown) | NADH staining (oxidative capacity), unstimulated control limb, vs vehicle ([6]; contralateral control limb, p<0.05) | TCAP-1-mediated increase in oxidative capacity (NADH), stimulated limb, vs vehicle ([6]; exercised (stimulated) limb, p=0.1) | peak in cytosolic calcium on caffeine application (fluo-4 fluorescence) [7] | decline of cytosolic calcium after the caffeine peak [7] | mitochondrial membrane potential (Rhodamine123 fluorescence) [8] | glucose uptake in neurons [9] |
| --- | --- | --- | --- | --- | --- | --- | --- | --- | --- | --- | --- | --- | --- | --- | --- | --- | --- | --- | --- | --- |
| TCAP-1: 41-mer peptide from the C-terminal of teneurin-1, synthesized amidated, suspended in 0.9% saline for subcutaneous injection (QQLLGTGRVQGYDGYFVLSVEQYLELSDSANNIHFMRQSEI-NH2) | significantly decreased | significantly reduced | significantly increased | significant increase | responded comparably | responded comparably | increased | increased | significantly slower | sustained | no difference | significantly higher | maintained throughout the protocol | no difference | significant increased frequency of a stronger NADH-positive staining | maintained | significantly lower peak | significantly faster decline | significantly higher membrane depolarization | significantly increases glucose uptake |
| Cn1c(=O)c2c(ncn2C)n(C)c1=O [caffeine, Caffeine, reference compound] |  |  |  |  |  |  |  |  |  |  |  |  |  |  |  |  | strong peak in cytosolic calcium | gradual decrease over 5 minutes | mitochondrial membrane depolarization |  |
